In patent US20160002204A1 (Board of Regents, The University of Texas System, priority 2014, published 2016):

Legend:
A549 cells = experiment: A549 proliferation (viability) assay, Cell Titer Fluor, 72 hours; format: cell-based; details: Homo sapiens
Summary of the method: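 A549 cells seeded at 1000 cells/well, left 24 h, then exposed to compound for 72 h at 37 °C, 5% CO2, final DMSO 0.5% (v/v). Viability read by Cell Titer Fluor fluorescence; EC50 from four-parameter logistic fit.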

[1] = target: T1, GLS1 (purified recombinant human GAC) (Homo sapiens, UniProt O94925); experiment: GLS1 enzymatic activity assay (dual-coupled, Amplex UltraRed/resorufin); format: biochemical
T1 sequence (O94925 55-598 isoform O94925-3 limits assumed): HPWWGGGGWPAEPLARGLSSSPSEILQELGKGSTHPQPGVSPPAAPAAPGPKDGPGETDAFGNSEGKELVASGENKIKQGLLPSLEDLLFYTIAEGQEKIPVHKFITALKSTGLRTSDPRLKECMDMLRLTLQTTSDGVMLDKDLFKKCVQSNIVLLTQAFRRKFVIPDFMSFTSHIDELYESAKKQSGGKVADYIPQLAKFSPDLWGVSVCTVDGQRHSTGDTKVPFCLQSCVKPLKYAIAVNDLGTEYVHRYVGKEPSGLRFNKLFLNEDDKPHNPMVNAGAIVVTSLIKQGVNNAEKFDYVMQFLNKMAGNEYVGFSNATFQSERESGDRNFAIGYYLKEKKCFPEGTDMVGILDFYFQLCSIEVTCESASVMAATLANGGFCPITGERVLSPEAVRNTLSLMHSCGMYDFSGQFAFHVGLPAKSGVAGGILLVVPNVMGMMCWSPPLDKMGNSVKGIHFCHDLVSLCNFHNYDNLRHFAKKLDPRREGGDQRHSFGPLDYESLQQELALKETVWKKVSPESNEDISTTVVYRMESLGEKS
Summary of the method: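 Recombinant human GAC (2 nM) preincubated with 50 mM potassium phosphate, then inhibitor (10 min each, RT); 1 mM glutamine, pH 7.4 Hepes buffer, 1% DMSO. Glutamate coupled via glutamate oxidase/HRP to resorufin (Ex 530/Em 590), kinetic or 20-min endpoint; IC50 by four-parameter logistic fit.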

SMILES | EC50 (A549 cells) [nM] | IC50 [1] [nM]
O=C(Cc1ccccc1)Nc1ccn(CCCCn2cc(C(=O)NCc3ncccc3F)nn2)c(=O)c1 [Example 147, N-[(3-fluoropyridin-2-yl)methyl]-1-{4-[2-oxo-4-(2-phenylacetamido)-1,2-dihydropyridin-1-yl]butyl}-1H-1,2,3-triazole-4-carboxamide] | > 5000 | 100 to 500
Cc1ccc(CNC(=O)c2cn(CC(F)CCn3ccc(NC(=O)Cc4ccccc4)cc3=O)nn2)cn1 (stereo not shown) [Example 150, 1-{2-fluoro-4-[2-oxo-4-(2-phenylacetamido)-1,2-dihydropyridin-1-yl]butyl}-N-[(6-methylpyridin-3-yl)methyl]-1H-1,2,3-triazole-4-carboxamide] | > 5000 | 100 to 500
O=C(CC1CC1)Nc1ccn(CCCCn2cc(C(=O)NCc3cccc(C(F)(F)F)c3)nn2)c(=O)c1 [Example 154, 1-{4-[4-(2-cyclopropylacetamido)-2-oxo-1,2-dihydropyridin-1-yl]butyl}-N-{[3-(trifluoromethyl)phenyl]methyl}-1H-1,2,3-triazole-4-carboxamide] | 500 to 5000 | < 100
O=C(CN1CCCC1=O)Nc1ccn(CCCCn2cc(C(=O)NCc3cccc(C(F)(F)F)c3)nn2)c(=O)c1 [Example 155, 1-(4-{2-oxo-4-[2-(2-oxopyrrolidin-1-yl)acetamido]-1,2-dihydropyridin-1-yl}butyl)-N-{[3-(trifluoromethyl)phenyl]methyl}-1H-1,2,3-triazole-4-carboxamide] | > 5000 | 100 to 500
CCN1CCC(CC(=O)Nc2ccn(CCCCn3cc(C(=O)NCc4cccc(C(F)(F)F)c4)nn3)c(=O)c2)CC1 [Example 156, 1-(4-{4-[2-(1-ethylpiperidin-4-yl)acetamido]-2-oxo-1,2-dihydropyridin-1-yl}butyl)-N-{[3-(trifluoromethyl)phenyl]methyl}-1H-1,2,3-triazole-4-carboxamide] | 500 to 5000 | 100 to 500
O=C(Cn1ccccc1=O)Nc1ccn(CCCCn2cc(C(=O)NCc3cccc(C(F)(F)F)c3)nn2)c(=O)c1 [Example 157, 1-(4-{2-oxo-4-[2-(2-oxo-1,2-dihydropyridin-1-yl)acetamido]-1,2-dihydropyridin-1-yl}butyl)-N-{[3-(trifluoromethyl)phenyl]methyl}-1H-1,2,3-triazole-4-carboxamide] | > 5000 | 500 to 5000
Cc1ccc(CNC(=O)c2cn(CCCCn3ccc(NC(=O)Cc4ccccc4)cc3=O)nn2)cn1 [Example 158, N-[(6-methylpyridin-3-yl)methyl]-1-{4-[2-oxo-4-(2-phenylacetamido)-1,2-dihydropyridin-1-yl]butyl}-1H-1,2,3-triazole-4-carboxamide] | 500 to 5000 | < 100
Cc1ccc(CNC(=O)c2cn(CCCCn3ccc(NC(=O)C4CCCC4)cc3=O)nn2)cn1 [Example 159, 1-[4-(4-cyclopentaneamido-2-oxo-1,2-dihydropyridin-1-yl)butyl]-N-[(6-methylpyridin-3-yl)methyl]-1H-1,2,3-triazole-4-carboxamide] | 500 to 5000 | 100 to 500
O=C(Cc1ccccc1)Nc1ccn(CC(F)CCn2cc(C(=O)NCc3cc(Br)ccn3)nn2)c(=O)c1 (stereo not shown) [Example 160, N-[(4-bromopyridin-2-yl)methyl]-1-{3-fluoro-4-[2-oxo-4-(2-phenylacetamido)-1,2-dihydropyridin-1-yl]butyl}-1H-1,2,3-triazole-4-carboxamide] | 500 to 5000 | < 100
Cc1cccc(CNC(=O)c2cn(CCC(F)Cn3ccc(NC(=O)Cc4ccccc4)cc3=O)nn2)n1 (stereo not shown) [Example 162, 1-{3-fluoro-4-[2-oxo-4-(2-phenylacetamido)-1,2-dihydropyridin-1-yl]butyl}-N-[(6-methylpyridin-2-yl)methyl]-1H-1,2,3-triazole-4-carboxamide] | 500 to 5000 | < 100

Continued, values first:

EC50 (A549 cells) [nM] | IC50 [1] [nM] | SMILES
< 100 | < 100 | O=C(CC1CCCCC1)Nc1ccn(CCCCn2cc(C(=O)NCc3cccc(C(F)(F)F)c3)nn2)c(=O)c1 [Example 141, 1-{4-[4-(2-cyclohexylacetamido)-2-oxo-1,2-dihydropyridin-1-yl]butyl}-N-{[3-(trifluoromethyl)phenyl]methyl}-1H-1,2,3-triazole-4-carboxamide]
500 to 5000 | 100 to 500 | Cc1ccc(CNC(=O)c2cn(CCCCn3ccc(NC(=O)OC(C)(C)C)cc3=O)nn2)cn1 [Example 143, tert-butyl N-{1-[4-(4-{[(6-methylpyridin-3-yl)methyl]carbamoyl}-1H-1,2,3-triazol-1-yl)butyl]-2-oxo-1,2-dihydropyridin-4-yl}carbamate]
< 100 | < 100 | O=C(Cc1ccccc1)Nc1ccn(CC(F)CCn2cc(C(=O)NCc3cccc(OC(F)(F)F)c3)nn2)c(=O)c1 (stereo not shown) [Example 144, 1-{3-fluoro-4-[2-oxo-4-(2-phenylacetamido)-1,2-dihydropyridin-1-yl]butyl}-N-{[3-(trifluoromethoxy)phenyl]methyl}-1H-1,2,3-triazole-4-carboxamide]
100 to 500 | < 100 | Cc1ccc(CNC(=O)c2cn(CCCCn3ccc(NC(=O)CC4CCCCC4)cc3=O)nn2)cn1 [Example 145, 1-{4-[4-(2-cyclohexylacetamido)-2-oxo-1,2-dihydropyridin-1-yl]butyl}-N-[(6-methylpyridin-3-yl)methyl]-1H-1,2,3-triazole-4-carboxamide]
100 to 500 | < 100 | O=C(CC1CCCCC1)Nc1ccn(CCCCn2cc(C(=O)NCc3ncccc3F)nn2)c(=O)c1 [Example 146, 1-{4-[4-(2-cyclohexylacetamido)-2-oxo-1,2-dihydropyridin-1-yl]butyl}-N-[(3-fluoropyridin-2-yl)methyl]-1H-1,2,3-triazole-4-carboxamide]
500 to 5000 | < 100 | Cc1ccc(CNC(=O)c2cn(CCC(F)Cn3ccc(NC(=O)Cc4ccccc4)cc3=O)nn2)cn1 (stereo not shown) [Example 148, 1-{3-fluoro-4-[2-oxo-4-(2-phenylacetamido)-1,2-dihydropyridin-1-yl]butyl}-N-[(6-methylpyridin-3-yl)methyl]-1H-1,2,3-triazole-4-carboxamide]
500 to 5000 | 100 to 500 | O=C(Cc1ccccc1)Nc1ccn(CC(F)CCn2cc(C(=O)NCc3ncccc3F)nn2)c(=O)c1 (stereo not shown) [Example 149, 1-{3-fluoro-4-[2-oxo-4-(2-phenylacetamido)-1,2-dihydropyridin-1-yl]butyl}-N-[(3-fluoropyridin-2-yl)methyl]-1H-1,2,3-triazole-4-carboxamide]
500 to 5000 | 100 to 500 | O=C(Cc1ccccc1)Nc1ccn(CCC(F)Cn2cc(C(=O)NCc3ncccc3F)nn2)c(=O)c1 (stereo not shown) [Example 151, 1-{2-fluoro-4-[2-oxo-4-(2-phenylacetamido)-1,2-dihydropyridin-1-yl]butyl}-N-[(3-fluoropyridin-2-yl)methyl]-1H-1,2,3-triazole-4-carboxamide]
100 to 500 | < 100 | O=C(NCc1cccc(C(F)(F)F)c1)c1cn(CCCCn2ccc(NC(=O)C3CCCCC3)cc2=O)nn1 [Example 152, 1-[4-(4-cyclohexaneamido-2-oxo-1,2-dihydropyridin-1-yl)butyl]-N-{[3-(trifluoromethyl)phenyl]methyl}-1H-1,2,3-triazole-4-carboxamide]
< 100 | < 100 | O=C(CC1CCCC1)Nc1ccn(CCCCn2cc(C(=O)NCc3cccc(C(F)(F)F)c3)nn2)c(=O)c1 [Example 153, 1-{4-[4-(2-cyclopentylacetamido)-2-oxo-1,2-dihydropyridin-1-yl]butyl}-N-{[3-(trifluoromethyl)phenyl]methyl}-1H-1,2,3-triazole-4-carboxamide]
100 to 500 | < 100 | O=C(Cc1ccccc1)Nc1ccn(CC(F)CCn2cc(C(=O)NCc3cc(C(F)(F)F)ccn3)nn2)c(=O)c1 (stereo not shown) [Example 161, 1-{3-fluoro-4-[2-oxo-4-(2-phenylacetamido)-1,2-dihydropyridin-1-yl]butyl}-N-{[4-(trifluoromethyl)pyridin-2-yl]methyl}-1H-1,2,3-triazole-4-carboxamide]
100 to 500 | < 100 | O=C(Cc1ccccc1)Nc1ccn(CCC(F)Cn2cc(C(=O)NCc3cc(Br)ccn3)nn2)c(=O)c1 (stereo not shown) [Example 163, N-[(4-bromopyridin-2-yl)methyl]-1-{2-fluoro-4-[2-oxo-4-(2-phenylacetamido)-1,2-dihydropyridin-1-yl]butyl}-1H-1,2,3-triazole-4-carboxamide]
100 to 500 | < 100 | O=C(Cc1ccccc1)Nc1ccn(CCC(F)Cn2cc(C(=O)NCc3cc(C(F)(F)F)ccn3)nn2)c(=O)c1 (stereo not shown) [Example 164, 1-{2-fluoro-4-[2-oxo-4-(2-phenylacetamido)-1,2-dihydropyridin-1-yl]butyl}-N-{[4-(trifluoromethyl)pyridin-2-yl]methyl}-1H-1,2,3-triazole-4-carboxamide]
